Source: patent US20200054633A1 (priority 2017, published 2020)

Key:
[1] = Clinical study: treatment-emergent laboratory toxicities, ECG, vital signs; assay type: in vivo, human; settings: for Worst treatment-emergent toxicity: Glucose hyperglycemia Grade 3 / Worst treatment-emergent toxicity: ALT increase by factor Grade 3 / Worst treatment-emergent toxicity: ALT increase by factor Grade 4 / Worst treatment-emergent toxicity: AST increase by factor Grade 4 / Worst treatment-emergent toxicity: CPK Grade 3 / Worst treatment-emergent toxicity: CPK Grade 4 / Worst treatment-emergent toxicity: Cholesterol Grade 3 / Worst treatment-emergent toxicity: Hemoglobin - change from baseline Grade 3 / Worst treatment-emergent toxicity: Hyperkalemia Grade 3 / Worst treatment-emergent toxicity: Hyperkalemia Grade 4 / Worst treatment-emergent toxicity: Hypernatremia Grade 3 / Worst treatment-emergent toxicity: Hypernatremia Grade 4 / Worst treatment-emergent toxicity: Hypocalcemia Grade 4 / Worst treatment-emergent toxicity: Hypoglycemia Grade 3 / Worst treatment-emergent toxicity: Hypokalemia Grade 3 / Worst treatment-emergent toxicity: Hypokalemia Grade 4 / Worst treatment-emergent toxicity: Hypomagnesemia Grade 3 / Worst treatment-emergent toxicity: Hyponatremia Grade 3 / Worst treatment-emergent toxicity: Hypophosphatemia Grade 3 / Worst treatment-emergent toxicity: Neutrophils decrease Grade 3 / Worst treatment-emergent toxicity: Neutrophils decrease Grade 4 / Worst treatment-emergent toxicity: Urine RBC increased Grade 3 / Worst treatment-emergent toxicity: Urine WBC increased Grade 3 / Worst treatment-emergent toxicity: Urine glucose increased Grade 3 / Worst treatment-emergent toxicity: Urine protein increased Grade 3: OST placebo; for Worst treatment-emergent toxicity: ALT increase by factor Grade 3 / Worst treatment-emergent toxicity: ALT increase by factor Grade 4 / Worst treatment-emergent toxicity: AST increase by factor Grade 4 / Worst treatment-emergent toxicity: CPK Grade 3 / Worst treatment-emergent toxicity: CPK Grade 4 / Worst treatment-emergent toxicity: Cholesterol Grade 3 / Worst treatment-emergent toxicity: Hemoglobin - change from baseline Grade 3 / Worst treatment-emergent toxicity: Hyperkalemia Grade 3 / Worst treatment-emergent toxicity: Hyperkalemia Grade 4 / Worst treatment-emergent toxicity: Hypernatremia Grade 3 / Worst treatment-emergent toxicity: Hypernatremia Grade 4 / Worst treatment-emergent toxicity: Hypocalcemia Grade 4 / Worst treatment-emergent toxicity: Hypoglycemia Grade 3 / Worst treatment-emergent toxicity: Hypokalemia Grade 3 / Worst treatment-emergent toxicity: Hypokalemia Grade 4 / Worst treatment-emergent toxicity: Hypomagnesemia Grade 3 / Worst treatment-emergent toxicity: Hyponatremia Grade 3 / Worst treatment-emergent toxicity: Hypophosphatemia Grade 3 / Worst treatment-emergent toxicity: Neutrophils decrease Grade 3 / Worst treatment-emergent toxicity: Neutrophils decrease Grade 4 / Worst treatment-emergent toxicity: Urine RBC increased Grade 3 / Worst treatment-emergent toxicity: Urine WBC increased Grade 3 / Worst treatment-emergent toxicity: Urine glucose increased Grade 3 / Worst treatment-emergent toxicity: Urine protein increased Grade 3: Safety Set 74
[2] = Clinical study: study drug discontinuation and reasons; assay type: in vivo, human
Excerpt: Given the sizable difference between the FAS and the Safety Set, summary tables are provided for both analysis sets. Table 4 and Table 5 present a summary of subjects who completed or discontinued study drug and/or the study for the FAS and the Safety Set, respectively.

[3] = Cmpd (1) 300 mg + OST placebo, Full Analysis Set
[4] = Cmpd (1) 300 mg + OST placebo, Safety Set
[5] = Cmpd (1) 600 mg + OST placebo, Full Analysis Set
[6] = Cmpd (1) 600 mg + OST placebo, Safety Set

O=C(O)[C@H]1C2CCC(CC2)[C@@H]1Nc1nc(-c2c[nH]c3ncc(F)cc23)ncc1F [Compound (1), Pimodivir]
Worst treatment-emergent toxicity: Glucose hyperglycemia Grade 3 ([1]; 300 mg, N 73): 1 (1.4%)
Worst treatment-emergent toxicity: ALT increase by factor Grade 3 ([1]; 300 mg): 0
Worst treatment-emergent toxicity: ALT increase by factor Grade 4 ([1]; 300 mg): 0
Worst treatment-emergent toxicity: AST increase by factor Grade 4 ([1]; 300 mg): 0
Worst treatment-emergent toxicity: CPK Grade 3 ([1]; 300 mg): 1 (1.4%)
Worst treatment-emergent toxicity: CPK Grade 4 ([1]; 300 mg): 0
Worst treatment-emergent toxicity: Cholesterol Grade 3 ([1]; 300 mg): 0
Worst treatment-emergent toxicity: Hemoglobin - change from baseline Grade 3 ([1]; 300 mg): 5 (7.1%)
Worst treatment-emergent toxicity: Hyperkalemia Grade 3 ([1]; 300 mg): 1 (1.4%)
Worst treatment-emergent toxicity: Hyperkalemia Grade 4 ([1]; 300 mg): 0
Worst treatment-emergent toxicity: Hypernatremia Grade 3 ([1]; 300 mg): 0
Worst treatment-emergent toxicity: Hypernatremia Grade 4 ([1]; 300 mg): 0
Worst treatment-emergent toxicity: Hypocalcemia Grade 4 ([1]; 300 mg): 1 (1.4%)
Worst treatment-emergent toxicity: Hypoglycemia Grade 3 ([1]; 300 mg): 0
Worst treatment-emergent toxicity: Hypokalemia Grade 3 ([1]; 300 mg): 0
Worst treatment-emergent toxicity: Hypokalemia Grade 4 ([1]; 300 mg): 0
Worst treatment-emergent toxicity: Hypomagnesemia Grade 3 ([1]; 300 mg): 1 (1.4%)
Worst treatment-emergent toxicity: Hyponatremia Grade 3 ([1]; 300 mg): 0
Worst treatment-emergent toxicity: Hypophosphatemia Grade 3 ([1]; 300 mg): 2 (2.7%)
Worst treatment-emergent toxicity: Neutrophils decrease Grade 3 ([1]; 300 mg): 1 (1.4%)
Worst treatment-emergent toxicity: Neutrophils decrease Grade 4 ([1]; 300 mg): 0
Worst treatment-emergent toxicity: Urine RBC increased Grade 3 ([1]; 300 mg): 3 (9.4%)
Worst treatment-emergent toxicity: Urine WBC increased Grade 3 ([1]; 300 mg): 0
Worst treatment-emergent toxicity: Urine glucose increased Grade 3 ([1]; 300 mg): 1 (1.4%)
Worst treatment-emergent toxicity: Urine protein increased Grade 3 ([1]; 300 mg): 0
Worst treatment-emergent toxicity: Glucose hyperglycemia Grade 3 ([1]; 600 mg, N 70): 0
Worst treatment-emergent toxicity: ALT increase by factor Grade 3 ([1]; 600 mg): 1
Worst treatment-emergent toxicity: ALT increase by factor Grade 4 ([1]; 600 mg): 1
Worst treatment-emergent toxicity: AST increase by factor Grade 4 ([1]; 600 mg): 1
Worst treatment-emergent toxicity: CPK Grade 3 ([1]; 600 mg): 2
Worst treatment-emergent toxicity: CPK Grade 4 ([1]; 600 mg): 1
Worst treatment-emergent toxicity: Cholesterol Grade 3 ([1]; 600 mg): 4
Worst treatment-emergent toxicity: Hemoglobin - change from baseline Grade 3 ([1]; 600 mg): 3
Worst treatment-emergent toxicity: Hyperkalemia Grade 3 ([1]; 600 mg): 1
Worst treatment-emergent toxicity: Hyperkalemia Grade 4 ([1]; 600 mg): 2
Worst treatment-emergent toxicity: Hypernatremia Grade 3 ([1]; 600 mg): 0
Worst treatment-emergent toxicity: Hypernatremia Grade 4 ([1]; 600 mg): 0
Worst treatment-emergent toxicity: Hypocalcemia Grade 4 ([1]; 600 mg): 0
Worst treatment-emergent toxicity: Hypoglycemia Grade 3 ([1]; 600 mg): 2
Worst treatment-emergent toxicity: Hypokalemia Grade 3 ([1]; 600 mg): 1
Worst treatment-emergent toxicity: Hypokalemia Grade 4 ([1]; 600 mg): 1
Worst treatment-emergent toxicity: Hypomagnesemia Grade 3 ([1]; 600 mg): 0
Worst treatment-emergent toxicity: Hyponatremia Grade 3 ([1]; 600 mg): 0
Worst treatment-emergent toxicity: Hypophosphatemia Grade 3 ([1]; 600 mg): 0
Worst treatment-emergent toxicity: Neutrophils decrease Grade 3 ([1]; 600 mg): 4
Worst treatment-emergent toxicity: Neutrophils decrease Grade 4 ([1]; 600 mg): 0
Worst treatment-emergent toxicity: Urine RBC increased Grade 3 ([1]; 600 mg): 5
Worst treatment-emergent toxicity: Urine WBC increased Grade 3 ([1]; 600 mg): 2
Worst treatment-emergent toxicity: Urine glucose increased Grade 3 ([1]; 600 mg): 0
Worst treatment-emergent toxicity: Urine protein increased Grade 3 ([1]; 600 mg): 2
laboratory values, electrocardiograms, and vital signs ([1]; clinical study): No safety concerns were noted
Drug termination: Discontinued [2, 3]: 20.7%
Drug termination: Discontinued, Adverse event [2, 3]: (10.3%)
Drug termination: Discontinued ([2]; Cmpd (1) 300 mg + OST placebo, Full Analysis Set, listed as Cmpd (1)): (20.7%)
Drug termination: Discontinued [2, 4]: 14 (18.9%)
Drug termination: Discontinued, Adverse event [2, 4]: 7 (9.5%)
Drug termination: Discontinued [2, 5]: 14.0%
Drug termination: Discontinued, Adverse event [2, 5]: (5.3%)
Drug termination: Discontinued ([2]; Cmpd (1) 600 mg + OST placebo, Full Analysis Set, listed as Cmpd (1)): (14.0%)
Drug termination: Discontinued [2, 6]: 12 (16.2%)
Drug termination: Discontinued, Adverse event [2, 6]: 3 (4.1%)
